# Tested on: HCT-116
# Experiment: Cytotoxicity against human HCT116 cells
# Type: functional, cell-based
row,Compound,IC50
1,Cc1oc2nc1C(=O)N[C@@H](C(C)C)c1nc(cs1)C(=O)N[C@@H](C(C)C)c1nc(cs1)C(=O)N[C@H]2C(C)C [BISTRATAMIDE H],1.7 µg/mL
2,CC(C)[C@@H]1NC(=O)c2csc(n2)[C@H](C(C)C)NC(=O)c2csc(n2)[C@H](C(C)C)NC(=O)[C@H]2N=C1O[C@@H]2C [BISTRATAMIDE E],7.9 µg/mL
3,CC(C)[C@@H]1NC(=O)c2csc(n2)[C@H](C(C)C)NC(=O)c2coc(n2)[C@H](C(C)C)NC(=O)[C@H]([C@@H](C)O)NC1=O [BISTRATAMIDE I],9 µg/mL
4,CC(C)[C@@H]1NC(=O)[C@H]2N=C(O[C@@H]2C)[C@H](C(C)C)NC(=O)c2csc(n2)[C@H](C(C)C)NC(=O)[C@@H]2COC1=N2 [BISTRATAMIDE F],28 µg/mL
5,Cc1oc2nc1C(=O)N[C@@H](C(C)C)c1nc(co1)C(=O)N[C@@H](C(C)C)c1nc(cs1)C(=O)N[C@H]2C(C)C [BISTRATAMIDE G],5 µg/mL
6,CC(C)[C@@H]1NC(=O)c2csc(n2)[C@H](C(C)C)NC(=O)c2csc(n2)[C@H](C(C)C)NC(=O)[C@H]([C@@H](C)O)NC1=O [BISTRATAMIDE J],1 µg/mL
